System: STZ mice
Assay: Blood glucose in mouse type II diabetes model with pancreatic islet damage and obesity, STZ plus high-fat diet (Example 5)
Type: in vivo
Details: STZ + high-fat diet ICR mice; single agent 0.5 g/kg per day by gavage, two weeks; 1 h after last administration; mean ± SD
Description: Effects of limonoid compound, acarbose or combination thereof on blood glucose in mouse type II diabetes model with pancreatic islet damage and obesity
In this example, a mouse model of type II diabetes with pancreatic islet damage and obesity was established by multiple modeling ICR mice with a small dose of streptozotocin (STZ), following with continuous high-fat diets (referring to literature: Zhang Jiyuan et al, Study on the effect of three plant extracts on improving glucose and lipid metabolism in type 2 diabetic mice, Food and Machinery, 2016, 32 (12): 142-147). […]
Experimental grouping: 15 male mice were randomly selected as the normal control group, and the remaining mice were subjected to a high-fat diet (high-fat diet formula: cholesterol 1%, egg yolk powder 10%, lard oil 10%, and basic feed 79%, for establishing an obesity mouse model) for consecutive 4 weeks and intraperitoneal injection of STZ at a dose of 35mg/kg for three consecutive days. After one week, the mice were subject to 24 hours of fasting and water deprivation, their fasting blood glucose was measured, and the mice with a blood glucose level of 15 to 25 mmol/L were selected and undifferentiatedly grouped and used in the experiment, continuously subjected to the high-fat diet, 15 mice in each group, and subjected to blood sampling and detection of indicators after 2 weeks of administration. […]

## C[C@H]1O[C@H](O[C@H]2[C@H](O)[C@@H](O)[C@@H](O[C@H]3[C@H](O)[C@@H](O)C(O)O[C@@H]3CO)O[C@@H]2CO)[C@H](O)[C@@H](O)[C@@H]1N[C@H]1C=C(CO)[C@@H](O)[C@H](O)[C@H]1O (stereo partly shown) [Acarbose, acarbose]
  Blood glucose value: 15.7 ± 3.0 mmol/L
